Test results as given in patent US20140227335A1 (priority 2012, published 2014).

Assays:
HIV-1 92RW021 = test: HIV infectivity assay in TZM-bl cells; format: cell-based; details: 92RW021 (clade A, R5); for IC50: Human immunodeficiency virus 1, TZM-bl
HIV-1 93IN101 = test: HIV infectivity assay in TZM-bl cells; format: cell-based; details: 93IN101 (clade C, R5); for IC50: Human immunodeficiency virus 1, TZM-bl
HIV-1 92UG024 = test: HIV infectivity assay in TZM-bl cells; format: cell-based; details: 92UG024 (clade D, X4); for IC50: Human immunodeficiency virus 1, TZM-bl
HIV-1 RU132 = test: HIV infectivity assay in TZM-bl cells; format: cell-based; details: RU132 (clade G, R5); for IC50: Human immunodeficiency virus 1, TZM-bl
Jc1 HCVcc = test: microbe, parasite or virus in culture; format: cell-based, HCV; details: Hepatitis C virus, Huh7.5, read-out: IC50, inactivation of cell-free HCVcc
HCVcc = test system: HCVcc; set-up: species or system HCV
VSV-Gpp = format: cell-based, HIV lentivirus pseudotyped with VSV-G
[1] = test system: pseudotyped NL4.3 Env-eGFP/gp160 Env virus; test: HIV-1 cell-to-cell transfer assay (DC to Jurkat T cells); format: cell-based; details: 10 μM PD added to DC 2 h after virus, washed after 2 h
[2] = test system: primary isolates of HIV and SIV; test: organism not typed; format: cell-based, HIV-1, HIV-2

Compound `N=C1Sc2ccccc2C2=NCCCN12` [PD, PD 404,182] has an IC90 (HIV-1 92RW021; PD in DMEM + 10% FBS) of 3.8 ± 0.3 µM, an IC90 (HIV-1 92RW021; PD in cervical fluids) of 4.4 ± 0.2 µM and an IC90 (HIV-1 92RW021; PD in seminal plasma) of 4.62 ± 0.32 µM. For the same compound, the IC50 (HIV-1 92RW021; PD in DMEM + 10% FBS) was 0.43 µM, the IC50 (HIV-1 92RW021; PD in cervical fluids) was 0.67 µM and the IC50 (HIV-1 92RW021; PD in seminal plasma) was 0.58 µM. For the same compound, the “IC50 (DMEM; IC90 per footnote)” value (HIV-1 93IN101; PD in DMEM + 10% FBS) was 5.1 ± 0.3 µM, the “IC50 (Cervical Fluid; IC90 per footnote)” value (HIV-1 93IN101; PD in cervical fluids) was 5.5 ± 0.2 µM and the “IC50 (Seminal Plasma; IC90 per footnote)” value (HIV-1 93IN101; PD in seminal plasma) was 5.36 ± 0.37 µM. The IC50 (HIV-1 93IN101; PD in DMEM + 10% FBS) was 1.5 µM, the IC50 (HIV-1 93IN101; PD in cervical fluids) was 1.8 µM and the IC50 (HIV-1 93IN101; PD in seminal plasma) was 1.76 µM. For the same compound, the “IC50 (DMEM; IC90 per footnote)” value (HIV-1 92UG024; PD in DMEM + 10% FBS) was 1.4 ± 0.2 µM, the “IC50 (Cervical Fluid; IC90 per footnote)” value (HIV-1 92UG024; PD in cervical fluids) was 1.8 ± 0.2 µM and the “IC50 (Seminal Plasma; IC90 per footnote)” value (HIV-1 92UG024; PD in seminal plasma) was 1.58 ± 0.2 µM. It also gave an IC50 (HIV-1 92UG024; PD in DMEM + 10% FBS) of 3.33 µM, an IC50 (HIV-1 92UG024; PD in cervical fluids) of 0.55 µM and an IC50 (HIV-1 92UG024; PD in seminal plasma) of 0.42 µM. For the same compound, the IC50 (HIV-1 RU132; PD in DMEM + 10% FBS) was 0.7 µM, the IC50 (HIV-1 RU132; PD in cervical fluids) was 0.9 µM and the IC50 (HIV-1 RU132; PD in seminal plasma) was 0.74 µM. For the same compound, the IC90 (HIV-1 RU132; PD in DMEM + 10% FBS) was 3.1 ± 0.2 µM, the IC90 (HIV-1 RU132; PD in cervical fluids) was 3.9 ± 0.5 µM and the IC90 (HIV-1 RU132; PD in seminal plasma) was 3.28 ± 0.22 µM. For the same compound, the IC50 (Jc1 HCVcc) was 11 µM, the HCVcc virion lysis (HCVcc) was 27% and the “reversal of PD's antiviral effect by liposomes” value (VSV-Gpp) was “not able to reverse PD's antiviral effect”. The “DC-mediated transmission of HIV-1 to T cells” value [1] was “prevents subsequent T cell infection with the pseudotyped virus”, the “effect of seminal plasma on PD's anti-HIV activity” value [2] was “does not negatively impact PD's anti-HIV activity” and the IC50 ([2]; Human immunodeficiency virus 1, TZM-bl, read-out: IC50 range over tested subtypes of HIV-1) was 0.42 to 1.96 µM. It also gave an IC90 ([2]; Human immunodeficiency virus 1, TZM-bl, read-out: IC90 range over tested subtypes of HIV-1) of 1.58 to 7.19 µM, an IC50 ([2]; TZM-bl) of roughly 1 µM and an IC50 ([2]; TZM-bl, read-out: IC50 range) of 0.33 to 1.8 µM. The IC90 ([2]; TZM-bl, read-out: IC90 range) was 1.4 to 6.6 µM, the IC50 ([2]; read-out: IC50 range) was 0.61 to 2.3 µM and the IC90 ([2]; read-out: IC90 range) was 1.8 to 7.5 µM.
